Reference: patent US6737383B1, “Herbicidal oxadiazolidines” (priority 1999, dated 2004)

Key:
crabgrass = assay: Test B pre/postemergence crabgrass; type: in vivo, Digitaria sanguinalis
Summary of the method: (§1)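 Test chemicals in a non-phytotoxic solvent mixture with surfactant were sprayed preemergence onto planted seeds and postemergence onto plants 2 to 18 cm tall (1- to 4-leaf stage). After twelve to sixteen days in a greenhouse, injury was visually rated against untreated controls from 0 (no effect) to 10 (complete control).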

giant foxtail = assay: Test B pre/postemergence giant foxtail; type: in vivo, Setaria faberii
Summary of the method: as §1

wheat = assay: Test B pre/postemergence wheat; type: in vivo, Triticum aestivum
Summary of the method: as §1

duck salad = assay: Test B flood test duck salad; type: in vivo, Heteranthera limosa
Summary of the method: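 Read-out is a visual response score from 0 (no effect) to 10 (complete control), assigned by comparison with untreated controls. Treatment was applied at the 2-leaf stage, and plants stayed in the greenhouse for twelve to sixteen days before scoring.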

[1] = Preemergence, Rate 62 g/ha, scale of 0 to 10 where 0 is no effect and 10 is complete control
[2] = Preemergence, Rate 250 g/ha, scale of 0 to 10 where 0 is no effect and 10 is complete control
[3] = Preemergence, Rate 500 g/ha, scale of 0 to 10 where 0 is no effect and 10 is complete control
[4] = Rate 62 g/ha, Postemergence, scale 0 to 10 (0 no effect, 10 complete control)
[5] = Rate 125 g/ha, Postemergence, scale of 0 to 10 where 0 is no effect and 10 is complete control
[6] = Rate 250 g/ha, Postemergence, scale of 0 to 10 where 0 is no effect and 10 is complete control
[7] = Rate 62 g/ha, headed Pre-emergence (flood test species), scale 0 to 10 (0 no effect, 10 complete control)
[8] = Rate 125 g/ha, Pre-emergence, flood test species, scale 0 to 10 where 0 is no effect and 10 is complete control
[9] = Rate 250 g/ha, Pre-emergence, flood-test species, scale 0 to 10, 0 is no effect, 10 is complete control
[10] = Rate 500 g/ha, Pre-emergence, flood test species, scale 0 to 10 (0 no effect, 10 complete control)
[11] = Postemergence, Rate 31 g/ha, visual rating, scale 0 to 10 (0 no effect, 10 complete control)
[12] = Preemergence, Rate 31 g/ha, visual rating, scale 0 to 10 (0 no effect, 10 complete control)
[13] = Rate 500 g/ha, Postemergence, scale 0 to 10, 0 no effect, 10 complete control
[14] = Postemergence, Rate 125 g/ha, scale 0 to 10, 0 is no effect, 10 is complete control

| SMILES | Crabgrass plant response rating (crabgrass; [1]) | Crabgrass plant response rating (0 to 10 scale) (crabgrass; Preemergence, Rate 125 g/ha) | Crabgrass plant response rating (crabgrass; [2]) | Crabgrass plant response rating (crabgrass; [3]) | Crabgrass plant response rating (crabgrass; [4]) | Plant response rating, Crabgrass (crabgrass; [6]) | Giant foxtail plant response rating (giant foxtail; [1]) | Giant foxtail plant response rating (0 to 10 scale) (giant foxtail; Preemergence, Rate 125 g/ha) | Giant foxtail plant response rating (giant foxtail; [2]) | Giant foxtail plant response rating (giant foxtail; [3]) | Giant foxtail plant response rating (giant foxtail; [4]) | Wheat plant response rating (wheat; [1]) | Wheat plant response rating (0 to 10 scale) (wheat; Preemergence, Rate 125 g/ha) | Wheat plant response rating (wheat; [2]) | Wheat plant response rating (wheat; [3]) | Wheat plant response rating (wheat; [4]) | Ducksalad plant response rating (duck salad; [7]) | Ducksalad plant response rating (duck salad; [8]) | Ducksalad plant response rating (duck salad; [9]) | Ducksalad plant response rating (duck salad; [10]) | further results |
| --- | --- | --- | --- | --- | --- | --- | --- | --- | --- | --- | --- | --- | --- | --- | --- | --- | --- | --- | --- | --- | --- |
| CC(C)N(C(=O)n1oc(=O)n(C2CCCCO2)c1=O)c1ccc(F)cc1 (centres unmarked) [Compound 311] | 0 | 0 | 0 | 0 | 0 | 0 | 0 | 0 | 0 | 0 | 0 | 0 | 0 | 0 | 0 | 0 | 0 | 0 | 0 | 0 | Crabgrass plant response rating (crabgrass; [5]): 0; Giant foxtail plant response rating (giant foxtail; [5]): 0; Plant response rating, Giant foxtail (giant foxtail; [6]): 0; Wheat plant response rating (wheat; [5]): 0; Plant response rating, Wheat (wheat; [6]): 0 |
| Cc1cccc(C)c1-n1c(=O)on(C(=O)N(c2ccc(Cl)cc2Cl)C2CCC2)c1=O [Compound 318] | 0 | 0 | 0 |  | 0 | 0 | 0 | 0 | 0 |  | 0 | 0 | 0 | 0 |  | 0 | 0 | 0 | 0 |  | Crabgrass plant response rating (crabgrass; [11]): 0; Crabgrass plant response rating (crabgrass; [12]): 0; Crabgrass plant response rating (crabgrass; [5]): 0; Giant foxtail plant response rating (giant foxtail; [11]): 0; Giant foxtail plant response rating (giant foxtail; [12]): 0; Giant foxtail plant response rating (giant foxtail; [5]): 0; Plant response rating, Giant foxtail (giant foxtail; [6]): 0; Wheat plant response rating (wheat; [11]): 0; Wheat plant response rating (wheat; [5]): 0; Plant response rating, Wheat (wheat; [6]): 0; Ducksalad plant response rating (duck salad; Rate 31 g/ha, Pre-emergence section (flood test species), scale 0 to 10): 0 |
| CC(C)N(C(=O)n1oc(=O)n(CCCN(C)C)c1=O)c1ccc(F)cc1 [Compound 323] | 0 | 0 | 0 | 2 | 0 | 0 | 0 | 0 | 0 | 2 | 0 | 0 | 0 | 0 | 0 | 0 | 0 | 0 | 0 | 0 | Crabgrass plant response rating (crabgrass; [5]): 0; Plant response rating, Crabgrass (crabgrass; [13]): 0; Giant foxtail plant response rating (giant foxtail; [5]): 0; Plant response rating, Giant foxtail (giant foxtail; [6]): 0; Plant response rating, Giant foxtail (giant foxtail; [13]): 0; Wheat plant response rating (wheat; [5]): 0; Plant response rating, Wheat (wheat; [6]): 0; Plant response rating, Wheat (wheat; [13]): 0 |
| CC(C)N(C(=O)n1oc(=O)n(C2CC3CCC2C3)c1=O)c1ccc(F)cc1F (centres unmarked) [Compound 326] | 0 | 0 | 3 | 5 | 0 | 1 | 0 | 2 | 8 | 9 | 0 | 0 | 0 | 0 | 2 | 0 | 0 | 0 | 0 | 0 | Plant response rating, Crabgrass (crabgrass; [14]): 0; Plant response rating, Crabgrass (crabgrass; [13]): 3; Plant response rating, Giant foxtail (giant foxtail; [14]): 0; Plant response rating, Giant foxtail (giant foxtail; [6]): 0; Plant response rating, Giant foxtail (giant foxtail; [13]): 2; Plant response rating, Wheat (wheat; [14]): 0; Plant response rating, Wheat (wheat; [6]): 0; Plant response rating, Wheat (wheat; [13]): 0 |
| CC(C)N(C(=O)n1oc(=O)n(-c2ccc3ccccc3c2)c1=O)c1ccc(F)cc1F [Compound 335] | 0 | 0 | 2 | 2 | 0 |  | 2 | 4 | 10 | 10 | 0 | 0 | 0 | 0 | 0 | 0 | 0 | 0 | 0 | 0 | Plant response rating, Crabgrass (crabgrass; [14]): 0; Plant response rating, Crabgrass (crabgrass; [13]): 0; Plant response rating, Giant foxtail (giant foxtail; [14]): 0; Plant response rating, Giant foxtail (giant foxtail; [13]): 0; Plant response rating, Wheat (wheat; [14]): 0; Plant response rating, Wheat (wheat; [13]): 0 |
| Cc1c(-n2c(=O)on(C(=O)N(c3ccc(F)cc3F)C(C)C)c2=O)ccc2ccccc12 [Compound 337] | 0 | 0 | 0 | 3 | 0 |  | 0 | 0 | 2 | 9 | 0 | 0 | 0 | 0 | 0 | 0 | 0 | 0 | 0 | 0 | Plant response rating, Crabgrass (crabgrass; [14]): 0; Plant response rating, Crabgrass (crabgrass; [13]): 0; Plant response rating, Giant foxtail (giant foxtail; [14]): 0; Plant response rating, Giant foxtail (giant foxtail; [13]): 0; Plant response rating, Wheat (wheat; [14]): 0; Plant response rating, Wheat (wheat; [13]): 0 |
